Measurements published in ChEMBL document CHEMBL1156187, “Discovery of a selective small-molecule melanocortin-4 receptor agonist with efficacy in a pilot study of sexual dysfunction in humans” (J Med Chem, 2010).

What was measured:
Melanocortin receptor 4 [1] = target: T1, Melanocortin receptor 4 (Homo sapiens, UniProt P32245); test: Agonist activity at human recombinant MC4 receptor expressed in CHO cells by cAMP responsive beta lactamase reporter gene assay; format: functional, cell-based
[2] = target: T2, Melanocyte-stimulating hormone receptor (Homo sapiens, UniProt Q01726); test: Agonist activity at human recombinant MC1 receptor expressed in HEK293 cells assessed as cAMP accumulation by enzyme fragment complementation assay; format: functional, cell-based
Target sequence in this assay (Q01726 whole entry, the tested form may be a part): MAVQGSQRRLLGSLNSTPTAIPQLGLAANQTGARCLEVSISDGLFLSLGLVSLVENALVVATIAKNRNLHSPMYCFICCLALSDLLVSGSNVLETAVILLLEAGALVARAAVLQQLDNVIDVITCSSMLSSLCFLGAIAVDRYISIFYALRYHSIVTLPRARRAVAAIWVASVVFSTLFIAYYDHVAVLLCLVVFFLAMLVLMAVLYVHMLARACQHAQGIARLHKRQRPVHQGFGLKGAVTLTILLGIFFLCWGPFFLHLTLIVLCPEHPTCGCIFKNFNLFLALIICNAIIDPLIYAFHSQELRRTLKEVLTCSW

Melanocortin receptor 3 [3] = target: T3, Melanocortin receptor 3 (Homo sapiens, UniProt P41968); test: Agonist activity at human recombinant MC3 receptor expressed in CHO cells assessed as cAMP accumulation by enzyme fragment complementation assay; format: functional, cell-based
Melanocortin receptor 4 [4] = target: T1, Melanocortin receptor 4; test: Displacement of [125I]-MT-II from human recombinant MC4 receptor expressed in CHO cells by scintillation counting
[5] = target: T2, Melanocyte-stimulating hormone receptor; test: Agonist activity at human recombinant MC1 receptor expressed in HEK293 cells assessed as cAMP accumulation by enzyme fragment complementation assay relative to alpha melanocyte-stimulating hormone; format: functional, cell-based
Target sequence in this assay (Q01726 whole entry, looked up, the tested form may be a part): as the sequence (Q01726 whole entry, the tested form may be a part) above

Melanocortin receptor 5 [6] = target: T4, Melanocortin receptor 5 (Homo sapiens, UniProt P33032); test: Agonist activity at human recombinant MC5 receptor expressed in HEK293 cells assessed as cAMP accumulation by beta lactamase reporter gene assay relative to alpha melanocyte-stimulating hormone; format: functional, cell-based
Melanocortin receptor 5 [7] = target: T4, Melanocortin receptor 5; test: Agonist activity at human recombinant MC5 receptor expressed in HEK293 cells assessed as cAMP accumulation by beta lactamase reporter gene assay; format: functional, cell-based
[8] = Binding affinity to sodium channel
[9] = Oral bioavailability in rat at 0.1 mg/kg; format: ADME, organism-based; conditions: in vivo
[10] = Volume of distribution at steady state in rat at 1 mg/kg, iv; format: ADME, organism-based; set-up: dose 1 mg/kg, route intravenous; conditions: in vivo, read-out: Vdss
[11] = Clearance in rat at 1 mg/kg, iv; format: ADME, organism-based; set-up: dose 1 mg/kg, route intravenous; conditions: in vivo
[12] = Half life in dog at 0.05 mg/kg, iv; format: ADME, organism-based, Canis lupus familiaris; set-up: dose 0.05 mg/kg, route intravenous; conditions: in vivo
[13] = Apparent Permeability from basolateral to apical side of MDCK2 cells over expressing MDR1; format: ADME, cell-based, Canis lupus familiaris; conditions: dog, MDCK-MDR1; read-out: permeability
[14] = Half life in rat at 1 mg/kg, iv; format: ADME, organism-based; set-up: dose 1 mg/kg, route intravenous; conditions: in vivo
[15] = Oral bioavailability in dog at 0.1 mg/kg; format: ADME, organism-based, Canis lupus familiaris; conditions: in vivo
[16] = Lipophilicity, log D at pH 7.4; format: physicochemical; conditions: buffer
[17] = Clearance in dog plasma at 0.05 mg/kg, iv; format: ADME, organism-based, Canis lupus familiaris; set-up: dose 0.05 mg/kg, route intravenous
[18] = Association constant, pKa of the compound; format: physicochemical
[19] = Intrinsic clearance in human liver microsome measured per mg of protein; format: ADME; conditions: liver microsomes
Melanocortin receptor 3 [20] = target: T3, Melanocortin receptor 3; test: Agonist activity at human recombinant MC3 receptor expressed in CHO cells assessed as cAMP accumulation by enzyme fragment complementation assay relative to […]; format: functional, cell-based
[21] = Fraction unbound in dog plasma; format: ADME, cell-free, Canis lupus familiaris
Liver microsomes = test: Intrinsic clearance in rat liver microsome measured per mg of protein; format: ADME
[22] = Intrinsic clearance in dog liver microsome measured per mg of protein; format: ADME, Canis lupus familiaris; conditions: microsomes
[23] = Fraction unbound in rat plasma; format: ADME, cell-free
[24] = Volume of distribution at steady state in dog plasma at 0.05 mg/kg, iv; format: ADME, organism-based, Canis lupus familiaris; set-up: dose 0.05 mg/kg, route intravenous; conditions: read-out: Vdss
[25] = Apparent Permeability from apical to basolateral side of MDCK2 cells over expressing MDR1; format: ADME, cell-based, Canis lupus familiaris; conditions: dog, MDCK-MDR1; read-out: permeability
[26] = target: Voltage-gated inwardly rectifying potassium channel KCNH2 (Homo sapiens, UniProt Q12809); test: Displacement of [3H]dofetilide from human ERG expressed in CHO cells by patch clamp method
Sequence of Voltage-gated inwardly rectifying potassium channel KCNH2 (Q12809 whole entry): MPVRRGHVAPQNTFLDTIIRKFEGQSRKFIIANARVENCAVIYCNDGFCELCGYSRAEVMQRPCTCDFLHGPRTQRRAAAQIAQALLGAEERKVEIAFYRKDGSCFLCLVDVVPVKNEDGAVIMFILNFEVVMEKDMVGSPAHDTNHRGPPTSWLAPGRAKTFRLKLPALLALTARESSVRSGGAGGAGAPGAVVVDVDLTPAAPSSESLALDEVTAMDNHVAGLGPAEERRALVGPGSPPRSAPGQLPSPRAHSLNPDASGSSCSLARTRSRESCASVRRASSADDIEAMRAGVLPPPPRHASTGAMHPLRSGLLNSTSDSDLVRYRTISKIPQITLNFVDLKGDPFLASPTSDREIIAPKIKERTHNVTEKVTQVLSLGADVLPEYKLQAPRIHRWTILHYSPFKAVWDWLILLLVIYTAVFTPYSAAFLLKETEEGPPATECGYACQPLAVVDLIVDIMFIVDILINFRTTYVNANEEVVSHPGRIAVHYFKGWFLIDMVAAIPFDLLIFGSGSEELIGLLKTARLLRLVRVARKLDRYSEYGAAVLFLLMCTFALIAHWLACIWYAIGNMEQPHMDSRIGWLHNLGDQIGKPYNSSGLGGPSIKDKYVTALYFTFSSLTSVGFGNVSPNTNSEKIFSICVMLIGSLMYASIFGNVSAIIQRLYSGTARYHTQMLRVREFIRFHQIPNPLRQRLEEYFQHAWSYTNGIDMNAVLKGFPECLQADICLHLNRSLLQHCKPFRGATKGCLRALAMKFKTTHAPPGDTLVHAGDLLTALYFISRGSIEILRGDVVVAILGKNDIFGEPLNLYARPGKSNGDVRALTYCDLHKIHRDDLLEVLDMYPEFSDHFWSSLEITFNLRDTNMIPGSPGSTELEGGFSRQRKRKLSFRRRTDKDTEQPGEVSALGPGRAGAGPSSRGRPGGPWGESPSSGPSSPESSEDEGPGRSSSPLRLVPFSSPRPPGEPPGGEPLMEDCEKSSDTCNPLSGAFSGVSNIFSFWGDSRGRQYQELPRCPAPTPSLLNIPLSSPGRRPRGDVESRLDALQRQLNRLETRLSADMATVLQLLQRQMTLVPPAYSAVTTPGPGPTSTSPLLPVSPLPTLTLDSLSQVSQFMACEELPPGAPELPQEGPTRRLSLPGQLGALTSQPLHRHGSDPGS

T1 sequence (P32245 whole entry, the tested form may be a part): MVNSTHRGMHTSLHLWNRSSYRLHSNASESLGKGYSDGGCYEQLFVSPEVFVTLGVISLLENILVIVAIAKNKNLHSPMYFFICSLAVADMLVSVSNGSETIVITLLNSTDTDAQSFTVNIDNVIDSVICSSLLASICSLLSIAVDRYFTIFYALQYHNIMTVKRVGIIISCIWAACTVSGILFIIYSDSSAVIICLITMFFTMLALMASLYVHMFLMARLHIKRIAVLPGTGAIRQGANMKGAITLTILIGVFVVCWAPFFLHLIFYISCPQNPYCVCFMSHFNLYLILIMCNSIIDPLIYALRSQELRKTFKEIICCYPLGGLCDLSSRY
T3 sequence (P41968 whole entry, the tested form may be a part): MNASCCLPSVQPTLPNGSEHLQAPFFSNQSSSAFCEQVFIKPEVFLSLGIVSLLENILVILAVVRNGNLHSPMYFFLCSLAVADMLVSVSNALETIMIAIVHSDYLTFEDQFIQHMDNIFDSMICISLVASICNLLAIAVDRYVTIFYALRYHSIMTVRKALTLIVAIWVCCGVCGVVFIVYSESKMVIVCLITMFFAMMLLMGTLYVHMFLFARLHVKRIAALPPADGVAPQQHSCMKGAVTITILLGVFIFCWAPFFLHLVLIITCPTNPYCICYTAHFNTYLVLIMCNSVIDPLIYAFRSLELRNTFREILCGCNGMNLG
T4 sequence (P33032 whole entry): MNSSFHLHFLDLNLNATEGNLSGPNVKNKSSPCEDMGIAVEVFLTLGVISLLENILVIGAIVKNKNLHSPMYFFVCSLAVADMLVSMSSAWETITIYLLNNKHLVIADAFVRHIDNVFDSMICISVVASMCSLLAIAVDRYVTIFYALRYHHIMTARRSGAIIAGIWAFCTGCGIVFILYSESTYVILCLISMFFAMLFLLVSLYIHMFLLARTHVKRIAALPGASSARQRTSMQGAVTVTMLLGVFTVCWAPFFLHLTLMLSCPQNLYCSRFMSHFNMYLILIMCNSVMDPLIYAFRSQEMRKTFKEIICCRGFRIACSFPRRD

CCCCN1C[C@H](C(=O)N2C[C@@H](C)[C@](O)(c3ccccc3)[C@@H](C)C2)[C@@H](c2ccc(F)cc2F)C1
EC50 (Melanocortin receptor 4 [1]): 105 nM | EC50 [2]: 1100 nM | EC50 (Melanocortin receptor 3 [3]): > 5720 nM | Ki (Melanocortin receptor 4 [4]): 233 nM | Emax [5]: 72% | Emax (Melanocortin receptor 5 [6]): 72% | EC50 (Melanocortin receptor 5 [7]): 1430 nM

C[C@@H]1CN(C(=O)[C@@H]2CN(C(C)(C)C)C[C@H]2c2ccc(F)cc2F)C[C@H](C)[C@@]1(O)c1ccc(F)cc1F
EC50 (Melanocortin receptor 4 [1]): 62 nM | EC50 [2]: 6570 nM | EC50 (Melanocortin receptor 3 [3]): 10700 nM | Ki (Melanocortin receptor 4 [4]): 176 nM | Emax [5]: 93% | Emax (Melanocortin receptor 5 [6]): 84%

C[C@@H]1CN(C(=O)[C@@H]2CN(C(C)(C)C)C[C@H]2c2ccc(F)cc2F)C[C@H](C)[C@@]1(O)c1ccc(F)cc1.Cl
Ki [8]: 520 nM | bioavailability [9]: 74% | Vd [10]: 11 L/kg | EC50 (Melanocortin receptor 4 [1]): 18 nM | clearance [11]: 34 mL/min/kg | half-life [12]: 10.4 h | Papp B→A [13]: 22 ×10⁻⁶ cm/s | half-life [14]: 3.9 h | bioavailability [15]: 28% | logD [16]: 3.1 | EC50 [2]: 1120 nM | EC50 (Melanocortin receptor 3 [3]): 3050 nM | clearance [17]: 12 mL/min/kg | Ki (Melanocortin receptor 4 [4]): 36 nM | pKa [18]: 8.74 | microsomal CLint [19]: 28 µL/min/mg | Emax [5]: 99% | Emax (Melanocortin receptor 3 [20]): 79% | Emax (Melanocortin receptor 5 [6]): 116% | fraction unbound [21]: 0.09 | clearance (Liver microsomes): 47 µL/min/mg | clearance [22]: 8 µL/min/mg | fraction unbound [23]: 0.04 | Vd [24]: 11 L/kg | Papp A→B [25]: 26 ×10⁻⁶ cm/s | EC50 (Melanocortin receptor 5 [7]): 3600 nM

C[C@@H]1CN(C(=O)[C@H]2CN(C3CCC3)C[C@@H]2c2ccc(F)cc2F)C[C@H](C)[C@@]1(O)c1ccccc1
EC50 (Melanocortin receptor 4 [1]): 32 nM | EC50 [2]: 350 nM | EC50 (Melanocortin receptor 3 [3]): 500 nM | Ki (Melanocortin receptor 4 [4]): 62 nM | Emax [5]: 79% | Emax (Melanocortin receptor 3 [20]): 81%

C[C@@H]1CN(C(=O)[C@H]2CN(C3CCOCC3)C[C@@H]2c2ccc(F)cc2F)C[C@H](C)[C@@]1(O)c1ccccc1
EC50 (Melanocortin receptor 4 [1]): 18 nM | logD [16]: 3.1 | EC50 [2]: > 11900 nM | EC50 (Melanocortin receptor 3 [3]): > 14500 nM | Ki [26]: > 5270 nM | Ki (Melanocortin receptor 4 [4]): 36 nM | microsomal CLint [19]: 151 µL/min/mg | EC50 (Melanocortin receptor 5 [7]): > 20000 nM

C[C@@H]1CN(C(=O)[C@H]2CN(c3ccncn3)C[C@@H]2c2ccc(F)cc2F)C[C@H](C)[C@@]1(O)c1ccccc1
EC50 (Melanocortin receptor 4 [1]): 4 nM | EC50 [2]: > 9000 nM | EC50 (Melanocortin receptor 3 [3]): 600 nM | Ki [26]: > 10000 nM | Ki (Melanocortin receptor 4 [4]): 64 nM | Emax (Melanocortin receptor 3 [20]): 75% | EC50 (Melanocortin receptor 5 [7]): > 14000 nM

CCC[C@@]1(O)[C@H](C)CN(C(=O)[C@H]2CN(c3cccnn3)C[C@@H]2c2ccc(F)cc2F)C[C@@H]1C
EC50 (Melanocortin receptor 4 [1]): 21 nM | logD [16]: 2.8 | EC50 [2]: 3900 nM | EC50 (Melanocortin receptor 3 [3]): 7480 nM | Ki (Melanocortin receptor 4 [4]): 56 nM | microsomal CLint [19]: > 440 µL/min/mg | Emax [5]: 104% | Emax (Melanocortin receptor 3 [20]): 79%

C[C@@H]1CN(C(=O)[C@@H]2CN(C(C)(C)C)C[C@H]2c2ccc(F)cc2F)C[C@H](C)[C@@]1(O)c1c(F)cccc1F
EC50 (Melanocortin receptor 4 [1]): 45 nM | EC50 [2]: > 5010 nM | EC50 (Melanocortin receptor 3 [3]): 4570 nM | Ki [26]: 5000 nM | Ki (Melanocortin receptor 4 [4]): 99 nM | Emax (Melanocortin receptor 3 [20]): 76% | EC50 (Melanocortin receptor 5 [7]): > 5810 nM

C[C@@H]1CN(C(=O)[C@@H]2CN(C(C)(C)C)C[C@H]2c2ccc(F)cc2F)C[C@H](C)[C@@]1(O)c1ccc(Cl)cc1
EC50 (Melanocortin receptor 4 [1]): 30 nM | logD [16]: 3.9 | EC50 [2]: > 5880 nM | EC50 (Melanocortin receptor 3 [3]): 3680 nM | Ki [26]: > 10000 nM | Ki (Melanocortin receptor 4 [4]): 48 nM | microsomal CLint [19]: 16 µL/min/mg | Emax (Melanocortin receptor 3 [20]): 75% | Emax (Melanocortin receptor 5 [6]): 107% | EC50 (Melanocortin receptor 5 [7]): 5190 nM

CC(C)N1C[C@@H](C(=O)N2C[C@@H](C)[C@](O)(c3ccccc3)[C@@H](C)C2)[C@H](c2ccc(F)cc2F)C1
EC50 (Melanocortin receptor 4 [1]): 69 nM | logD [16]: 3.2 | EC50 [2]: 750 nM | EC50 (Melanocortin receptor 3 [3]): 11600 nM | Ki [26]: > 7880 nM | Ki (Melanocortin receptor 4 [4]): 114 nM | microsomal CLint [19]: 128 µL/min/mg | Emax [5]: 100% | Emax (Melanocortin receptor 3 [20]): 72% | Emax (Melanocortin receptor 5 [6]): 103% | EC50 (Melanocortin receptor 5 [7]): 3640 nM

C[C@@H]1CN(C(=O)[C@@H]2CNC[C@H]2c2ccc(F)cc2F)C[C@H](C)[C@@]1(O)c1ccccc1
EC50 (Melanocortin receptor 4 [1]): 462 nM | EC50 [2]: > 8740 nM | EC50 (Melanocortin receptor 3 [3]): > 25200 nM | Ki [26]: 6650 nM | Ki (Melanocortin receptor 4 [4]): 264 nM | EC50 (Melanocortin receptor 5 [7]): > 20000 nM

C[C@@H]1CN(C(=O)[C@H]2CN(c3cccnn3)C[C@@H]2c2ccc(F)cc2F)C[C@H](C)[C@@]1(O)c1ccccn1
EC50 (Melanocortin receptor 4 [1]): 7 nM | logD [16]: 3 | EC50 [2]: 1850 nM | EC50 (Melanocortin receptor 3 [3]): 3660 nM | Ki (Melanocortin receptor 4 [4]): 52 nM | microsomal CLint [19]: > 440 µL/min/mg | Emax [5]: 67% | Emax (Melanocortin receptor 3 [20]): 75%

C[C@@H]1CN(C(=O)[C@@H]2CN(C(C)(C)C)C[C@H]2c2ccc(F)cc2F)C[C@H](C)[C@@]1(O)c1ccccn1
EC50 (Melanocortin receptor 4 [1]): 46 nM | EC50 [2]: 1170 nM | EC50 (Melanocortin receptor 3 [3]): > 33300 nM | Ki [26]: 5840 nM | Ki (Melanocortin receptor 4 [4]): 350 nM | Emax [5]: 97% | Emax (Melanocortin receptor 5 [6]): 100%

CCCC[C@H](NC(C)=O)C(=O)N[C@H]1CC(=O)NCCCC[C@@H](C(N)=O)NC(=O)[C@H](Cc2c[nH]c3ccccc23)NC(=O)[C@H](CCCNC(=N)N)NC(=O)C(Cc2ccccc2)NC(=O)[C@H](CC2=NC=NC2)NC1=O (single isomer, unassigned)
Emax [5]: 98% | Emax (Melanocortin receptor 3 [20]): 87% | Emax (Melanocortin receptor 5 [6]): 61%

C[C@@H]1CN(C(=O)[C@H]2CN(c3cccnc3)C[C@@H]2c2ccc(F)cc2F)C[C@H](C)[C@@]1(O)c1ccccc1
EC50 (Melanocortin receptor 4 [1]): 5 nM | EC50 [2]: > 8220 nM | EC50 (Melanocortin receptor 3 [3]): 65 nM | Ki [26]: 5070 nM | Ki (Melanocortin receptor 4 [4]): 50 nM | Emax (Melanocortin receptor 3 [20]): 90%

C[C@@H]1CN(C(=O)[C@H]2CN(C3CC3)C[C@@H]2c2ccc(F)cc2F)C[C@H](C)[C@@]1(O)c1ccccc1
EC50 (Melanocortin receptor 4 [1]): 55 nM | logD [16]: > 4 | EC50 [2]: > 4910 nM | EC50 (Melanocortin receptor 3 [3]): > 33300 nM | Ki [26]: > 9170 nM | Ki (Melanocortin receptor 4 [4]): 290 nM | microsomal CLint [19]: 342 µL/min/mg
